Reference: ChEMBL document CHEMBL4393736, “Evaluation of α-hydroxycinnamic acids as pyruvate carboxylase inhibitors” (Bioorg Med Chem, 2019)
Activity calls are given as the source filed them. The rule behind the calls is not given here.

Legend:
Staphylococcus aureus [1] = assay: (§1) Competitive inhibition of Staphylococcus aureus pyruvate carboxylase expressed in Escherichia coli BL21(DE3) treated with pyruvate as substrate prior to HCO3-, ATP and NADH addition by Michelis-Menten based double-reciprocal plot analysis
Staphylococcus aureus [2] = assay: Non-competitive inhibition of Staphylococcus aureus pyruvate carboxylase expressed in Escherichia coli BL21(DE3) treated with ATP as substrate prior to HCO3-, ATP and NADH addition by Michelis-Menten based double-reciprocal plot analysis
[3] = biological target: L-lactate dehydrogenase (Homo sapiens) (UniProt V9HWB9); assay: Substrate activity at lactate dehydrogenase (unknown origin) at 2 mM in presence of NADH
[4] = Inhibition of Staphylococcus aureus pyruvate carboxylase expressed in Escherichia coli BL21(DE3) assessed as FVB-OAA adduct formation using pyruvate as substrate by Fast violet B assay
[5] = Inhibition of full length Staphylococcus aureus pyruvate carboxylase expressed in Escherichia coli BL21(DE3) assessed as formation of oxaloacetic acid using pyruvate, HCO3-, ATP and NADH as substrate by malate dehydrogenase coupled enzyme assay
Homo sapiens [6] = species: Homo sapiens; assay: Inhibition of MDH (unknown origin) at 1 mM using oxaloacetate as substrate by spectrophotometric analysis
Homo sapiens [7] = species: Homo sapiens; assay: Inhibition of MDH (unknown origin) at 200 uM using oxaloacetate as substrate by spectrophotometric analysis
[8] = biological target: Carbonic anhydrase 2 (Homo sapiens) (UniProt P00918); assay: Inhibition of human carbonic anhydrase 2 at 200 uM treated with enzyme for 10 mins prior to substrate addition using p-nitrophenyl acetate as substrate measured for 20 mins
[9] = as §1
[10] = Mixed-type of inhibition of Staphylococcus aureus pyruvate carboxylase expressed in Escherichia coli BL21(DE3) treated with ATP as substrate prior to HCO3-, ATP and NADH addition by Michelis-Menten based double-reciprocal plot analysis
[11] = biological target: 72 kDa type IV collagenase (Homo sapiens) (UniProt P08253); assay: Inhibition of human matrix metalloprotease 2 at 50 uM treated with enzyme for 30 mins prior to substrate addition using omniMMP fluorogenic substrate measured for 30 mins by fluorescence based assay
[12] = biological target: L-lactate dehydrogenase (Homo sapiens) (UniProt V9HWB9); assay: Inhibition of lactate dehydrogenase (unknown origin) at 2 mM using pyruvate as substrate in presence of NADH
[13] = biological target: Carbonic anhydrase 2 (Homo sapiens) (UniProt P00918); assay: Increase in human carbonic anhydrase 2 activity at 200 uM treated with enzyme for 10 mins prior to substrate addition using p-nitrophenyl acetate as substrate measured for 20 mins

Sequence of 72 kDa type IV collagenase (Homo sapiens) (P08253 110-660 limits assumed): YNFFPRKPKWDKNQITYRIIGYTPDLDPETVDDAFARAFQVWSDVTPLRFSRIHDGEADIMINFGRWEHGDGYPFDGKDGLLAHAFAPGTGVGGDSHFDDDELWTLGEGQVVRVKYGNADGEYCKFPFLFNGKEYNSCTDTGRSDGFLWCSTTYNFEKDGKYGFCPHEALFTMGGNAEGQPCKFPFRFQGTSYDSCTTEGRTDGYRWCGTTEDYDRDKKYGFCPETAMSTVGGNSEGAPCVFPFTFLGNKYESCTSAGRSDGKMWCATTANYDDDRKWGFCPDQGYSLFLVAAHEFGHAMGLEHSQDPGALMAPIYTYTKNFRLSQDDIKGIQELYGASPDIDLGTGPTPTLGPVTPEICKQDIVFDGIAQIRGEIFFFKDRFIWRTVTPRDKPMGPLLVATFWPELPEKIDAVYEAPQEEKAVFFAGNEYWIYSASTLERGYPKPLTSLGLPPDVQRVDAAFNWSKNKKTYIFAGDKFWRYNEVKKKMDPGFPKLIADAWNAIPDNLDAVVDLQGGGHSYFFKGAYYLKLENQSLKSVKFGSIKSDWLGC

Compound	IC50 [4]	IC50 [5]	inhibition (Homo sapiens [6])	also measured
O=C(O)C(=O)O	–	–	–	inhibition (Staphylococcus aureus [1]): Active; inhibition (Staphylococcus aureus [2]): Active
O=C(O)/C(O)=C/c1ccc(O)cc1	67 µM	22 µM	9%	Activity [3]: Active
C=CCCC(=O)C(=O)O	> 2000 µM	–	–	–
Cc1cccc(/C=C(\O)C(=O)O)c1	360 µM	23 µM	74%	inhibition (Homo sapiens [7]): 13%
O=C(O)/C(O)=C/c1ccc2ccccc2n1	4.3 µM	3.2 µM	4%	inhibition [8]: inactive; Activity [3]: inactive; Ki [9]: 0.74 µM; Ki [10]: 5.2 to 7.1 µM; inhibition [11]: inactive; inhibition [12]: inactive
O=C(O)/C(O)=C/c1ccc(/C=C(\O)C(=O)O)cc1	3 µM	11 µM	–	inhibition [11]: Active; Activity [13]: Active
O=C(O)/C(O)=C/c1ccc([N+](=O)[O-])cc1	> 1000 µM	> 1000 µM	–	–
O=C(O)/C(O)=C/c1ccc(-c2ccsc2)cc1	48 µM	–	–	inhibition [11]: Active
O=C(O)/C(O)=C/c1ccccc1	240 µM	130 µM	78%	inhibition (Homo sapiens [7]): 0%
O=C(O)/C(O)=C/c1ccc(Cl)cc1	280 µM	220 µM	12%	inhibition (Homo sapiens [7]): 2%
O=C(O)/C=C/c1ccc(/C=C(\O)C(=O)O)cc1	58.6 µM	–	–	inhibition [11]: Active; Activity [13]: Active
O=C(O)C(=O)c1ccccc1 [BENZOYL FORMIC ACID]	> 3000 µM	–	–	–
COc1ccc(/C=C(\O)C(=O)O)cc1	170 µM	56 µM	–	–
O=C(O)C(=O)CC1CCCCC1	> 1000 µM	–	–	–
O=C(O)/C(O)=C/c1ccc(C(F)(F)F)cc1	130 µM	96 µM	–	–
O=C(O)C(=O)CCc1ccccc1	> 2000 µM	–	–	–
O=C(O)C(=O)Cc1ccccc1Br	> 1000 µM	> 1000 µM	–	–
Cc1ccc(/C=C(\O)C(=O)O)cc1C	98 µM	38 µM	–	inhibition (Homo sapiens [7]): 3%
Cc1ccc(/C=C(\O)C(=O)O)cc1	210 µM	140 µM	10%	inhibition (Staphylococcus aureus [1]): Active; inhibition (Staphylococcus aureus [2]): Active; inhibition (Homo sapiens [7]): -3%
O=C(O)/C=C/c1cccc(/C=C(\O)C(=O)O)c1	118 µM	–	–	–
O=C(O)/C(O)=C/c1ccc(Br)cc1	200 µM	81 µM	9%	inhibition (Homo sapiens [7]): 0%
O=C(O)/C(O)=C/c1ccc(F)cc1	100 µM	30 µM	78%	inhibition (Homo sapiens [7]): 23%
O=C(O)C(O)Cc1ccccc1 (centres undefined)	> 3000 µM	–	–	–
O=C(O)C(=O)Cc1ccccc1[N+](=O)[O-]	> 2000 µM	> 2000 µM	–	–
